Data on two compounds can be found in paper PMC8213057, “Targeting ALK2: An Open Science Approach to Developing Therapeutics for the Treatment of Diffuse Intrinsic Pontine Glioma” (Journal of Medicinal Chemistry, 2020).

Where “and” joins values, the source holds several entries; their conditions need not be identical. Equal values may be shown once.

Test [1] has as its target T1, PDK1/PDPK1 (Homo sapiens, UniProt O15530).
T1 sequence (O15530 1-556): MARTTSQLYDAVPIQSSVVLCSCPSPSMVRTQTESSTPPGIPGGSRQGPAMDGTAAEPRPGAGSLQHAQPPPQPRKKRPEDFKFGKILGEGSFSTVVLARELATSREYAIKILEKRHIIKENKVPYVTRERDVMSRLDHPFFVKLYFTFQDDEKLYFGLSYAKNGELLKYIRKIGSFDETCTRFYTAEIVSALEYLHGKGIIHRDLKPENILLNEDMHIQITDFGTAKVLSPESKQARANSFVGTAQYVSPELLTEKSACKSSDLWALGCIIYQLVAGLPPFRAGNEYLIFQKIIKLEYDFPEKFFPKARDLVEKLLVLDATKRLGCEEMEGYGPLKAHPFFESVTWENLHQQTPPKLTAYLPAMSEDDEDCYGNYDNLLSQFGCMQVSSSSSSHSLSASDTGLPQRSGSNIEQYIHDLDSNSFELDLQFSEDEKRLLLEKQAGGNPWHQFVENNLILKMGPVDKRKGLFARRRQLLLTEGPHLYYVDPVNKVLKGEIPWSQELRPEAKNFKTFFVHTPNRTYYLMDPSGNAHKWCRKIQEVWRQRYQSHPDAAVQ
Description: biochemical. The note with it: read-out: % enzyme activity, 1 μM; Run 1, Run 2.

The target in test [2] is PDGFRb (Homo sapiens, UniProt P09619). The note with it: 1 μM; Run 1, Run 2.
Test [3] addresses T2, SNRK (Homo sapiens, UniProt Q9NRH2).
T2 sequence (Q9NRH2 1-765): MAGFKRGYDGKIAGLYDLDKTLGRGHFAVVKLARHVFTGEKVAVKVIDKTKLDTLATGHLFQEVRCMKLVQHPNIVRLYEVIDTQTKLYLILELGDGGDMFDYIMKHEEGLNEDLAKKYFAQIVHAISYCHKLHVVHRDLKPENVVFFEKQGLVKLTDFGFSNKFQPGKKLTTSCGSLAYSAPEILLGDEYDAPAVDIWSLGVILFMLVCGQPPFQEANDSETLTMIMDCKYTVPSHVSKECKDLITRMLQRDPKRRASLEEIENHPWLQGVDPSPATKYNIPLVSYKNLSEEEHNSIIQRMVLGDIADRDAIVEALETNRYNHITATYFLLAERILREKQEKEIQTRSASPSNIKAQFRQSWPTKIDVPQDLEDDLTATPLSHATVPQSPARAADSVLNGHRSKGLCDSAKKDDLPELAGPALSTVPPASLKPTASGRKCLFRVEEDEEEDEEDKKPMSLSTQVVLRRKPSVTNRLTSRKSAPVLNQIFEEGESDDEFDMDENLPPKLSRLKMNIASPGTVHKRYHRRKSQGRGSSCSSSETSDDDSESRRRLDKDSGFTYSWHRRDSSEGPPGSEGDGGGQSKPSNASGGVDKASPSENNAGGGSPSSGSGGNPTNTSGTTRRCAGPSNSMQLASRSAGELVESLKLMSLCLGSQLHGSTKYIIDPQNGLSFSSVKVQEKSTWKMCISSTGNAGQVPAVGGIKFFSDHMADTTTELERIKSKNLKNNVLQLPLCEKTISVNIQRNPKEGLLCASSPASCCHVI
The note with it: 1 μM; Run 1, Run 2.

Test [4] has as its target T3, MEKK3 (Homo sapiens, UniProt Q99759).
T3 sequence (Q99759 1-626): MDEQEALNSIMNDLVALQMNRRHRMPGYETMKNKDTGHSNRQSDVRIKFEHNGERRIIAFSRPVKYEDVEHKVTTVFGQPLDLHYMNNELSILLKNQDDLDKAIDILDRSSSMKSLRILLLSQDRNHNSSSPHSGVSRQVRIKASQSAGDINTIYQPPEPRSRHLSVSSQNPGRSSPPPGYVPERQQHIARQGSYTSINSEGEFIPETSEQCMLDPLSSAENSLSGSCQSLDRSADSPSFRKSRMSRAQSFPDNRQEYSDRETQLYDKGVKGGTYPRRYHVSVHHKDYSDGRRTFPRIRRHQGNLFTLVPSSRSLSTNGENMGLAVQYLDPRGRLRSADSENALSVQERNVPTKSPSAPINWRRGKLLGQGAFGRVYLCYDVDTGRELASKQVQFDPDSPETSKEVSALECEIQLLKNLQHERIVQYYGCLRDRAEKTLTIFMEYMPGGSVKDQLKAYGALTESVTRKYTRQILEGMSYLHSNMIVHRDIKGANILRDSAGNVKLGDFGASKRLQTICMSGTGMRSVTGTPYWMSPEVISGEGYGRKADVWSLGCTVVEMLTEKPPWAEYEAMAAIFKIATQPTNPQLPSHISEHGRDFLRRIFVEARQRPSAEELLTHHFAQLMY
Conditions: 1 μM; Run 1, Run 2.

Test [5] addresses ABL1 (Homo sapiens, UniProt P00519). Description: biochemical. The note with it: read-out: % enzyme activity, 1 μM; Run 1, Run 2.
The target in test [6] is SGK2 (Homo sapiens, UniProt Q9HBY8). Conditions: 1 μM; Run 1, Run 2.
For test [7], the target named is CLK2 (Homo sapiens, UniProt P49760). Kind of test: biochemical. The note with it: read-out: % enzyme activity, 1 μM; Run 1, Run 2.
Test [8] deals with ZAK/MLTK.
In test [9] the target is ERK2/MAPK1 (Homo sapiens, UniProt P28482). Kind of test: biochemical. Conditions: read-out: % enzyme activity, 1 μM; Run 1, Run 2.
Test [10] deals with RSK3 (Homo sapiens, UniProt Q15349). Description: biochemical. The note with it: read-out: % enzyme activity, 1 μM; Run 1, Run 2.
RSK3, sequence (Q15349 whole entry): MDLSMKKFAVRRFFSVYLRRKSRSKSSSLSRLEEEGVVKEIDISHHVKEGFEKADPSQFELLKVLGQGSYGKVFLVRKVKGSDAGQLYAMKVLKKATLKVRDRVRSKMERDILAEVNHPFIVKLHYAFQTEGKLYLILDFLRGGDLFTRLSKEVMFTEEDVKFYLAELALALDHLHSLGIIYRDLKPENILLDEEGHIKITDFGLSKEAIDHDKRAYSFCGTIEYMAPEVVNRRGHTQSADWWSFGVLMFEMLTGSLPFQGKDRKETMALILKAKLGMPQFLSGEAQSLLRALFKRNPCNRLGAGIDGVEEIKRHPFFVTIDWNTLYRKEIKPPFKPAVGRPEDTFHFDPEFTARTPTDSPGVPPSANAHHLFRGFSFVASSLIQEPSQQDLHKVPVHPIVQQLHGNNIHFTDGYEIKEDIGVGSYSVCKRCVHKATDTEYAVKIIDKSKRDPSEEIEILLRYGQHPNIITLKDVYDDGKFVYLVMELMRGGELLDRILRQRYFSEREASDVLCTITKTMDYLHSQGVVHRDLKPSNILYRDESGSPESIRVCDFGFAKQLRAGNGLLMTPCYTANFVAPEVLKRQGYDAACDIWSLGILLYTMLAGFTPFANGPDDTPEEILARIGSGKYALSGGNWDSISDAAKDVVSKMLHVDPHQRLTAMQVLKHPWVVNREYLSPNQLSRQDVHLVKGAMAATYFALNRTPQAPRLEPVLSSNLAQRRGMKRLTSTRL

CLK2, sequence (P49760 whole entry): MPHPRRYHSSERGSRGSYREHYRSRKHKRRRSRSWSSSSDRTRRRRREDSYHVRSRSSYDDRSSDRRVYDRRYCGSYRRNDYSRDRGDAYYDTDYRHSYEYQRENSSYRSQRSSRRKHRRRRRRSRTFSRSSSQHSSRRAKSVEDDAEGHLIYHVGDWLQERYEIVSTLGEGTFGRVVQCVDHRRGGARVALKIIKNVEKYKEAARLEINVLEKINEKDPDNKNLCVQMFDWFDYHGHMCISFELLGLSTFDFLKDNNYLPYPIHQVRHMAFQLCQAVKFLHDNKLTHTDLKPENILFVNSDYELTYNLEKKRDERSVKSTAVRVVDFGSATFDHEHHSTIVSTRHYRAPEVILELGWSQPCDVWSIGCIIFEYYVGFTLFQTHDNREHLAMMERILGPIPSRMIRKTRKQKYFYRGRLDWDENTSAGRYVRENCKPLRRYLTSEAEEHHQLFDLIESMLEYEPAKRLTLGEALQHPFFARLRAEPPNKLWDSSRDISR
ERK2/MAPK1, sequence (P28482 whole entry): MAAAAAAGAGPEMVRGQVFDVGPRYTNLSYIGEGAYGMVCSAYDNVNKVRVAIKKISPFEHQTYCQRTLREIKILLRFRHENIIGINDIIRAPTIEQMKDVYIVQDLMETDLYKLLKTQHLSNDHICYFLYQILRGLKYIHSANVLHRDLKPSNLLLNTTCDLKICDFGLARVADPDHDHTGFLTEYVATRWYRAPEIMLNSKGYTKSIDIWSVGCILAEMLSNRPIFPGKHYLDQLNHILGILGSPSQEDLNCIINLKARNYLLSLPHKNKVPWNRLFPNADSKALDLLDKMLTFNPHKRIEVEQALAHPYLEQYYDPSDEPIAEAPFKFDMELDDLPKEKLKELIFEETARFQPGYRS
PDGFRb, sequence (P09619 33-1106): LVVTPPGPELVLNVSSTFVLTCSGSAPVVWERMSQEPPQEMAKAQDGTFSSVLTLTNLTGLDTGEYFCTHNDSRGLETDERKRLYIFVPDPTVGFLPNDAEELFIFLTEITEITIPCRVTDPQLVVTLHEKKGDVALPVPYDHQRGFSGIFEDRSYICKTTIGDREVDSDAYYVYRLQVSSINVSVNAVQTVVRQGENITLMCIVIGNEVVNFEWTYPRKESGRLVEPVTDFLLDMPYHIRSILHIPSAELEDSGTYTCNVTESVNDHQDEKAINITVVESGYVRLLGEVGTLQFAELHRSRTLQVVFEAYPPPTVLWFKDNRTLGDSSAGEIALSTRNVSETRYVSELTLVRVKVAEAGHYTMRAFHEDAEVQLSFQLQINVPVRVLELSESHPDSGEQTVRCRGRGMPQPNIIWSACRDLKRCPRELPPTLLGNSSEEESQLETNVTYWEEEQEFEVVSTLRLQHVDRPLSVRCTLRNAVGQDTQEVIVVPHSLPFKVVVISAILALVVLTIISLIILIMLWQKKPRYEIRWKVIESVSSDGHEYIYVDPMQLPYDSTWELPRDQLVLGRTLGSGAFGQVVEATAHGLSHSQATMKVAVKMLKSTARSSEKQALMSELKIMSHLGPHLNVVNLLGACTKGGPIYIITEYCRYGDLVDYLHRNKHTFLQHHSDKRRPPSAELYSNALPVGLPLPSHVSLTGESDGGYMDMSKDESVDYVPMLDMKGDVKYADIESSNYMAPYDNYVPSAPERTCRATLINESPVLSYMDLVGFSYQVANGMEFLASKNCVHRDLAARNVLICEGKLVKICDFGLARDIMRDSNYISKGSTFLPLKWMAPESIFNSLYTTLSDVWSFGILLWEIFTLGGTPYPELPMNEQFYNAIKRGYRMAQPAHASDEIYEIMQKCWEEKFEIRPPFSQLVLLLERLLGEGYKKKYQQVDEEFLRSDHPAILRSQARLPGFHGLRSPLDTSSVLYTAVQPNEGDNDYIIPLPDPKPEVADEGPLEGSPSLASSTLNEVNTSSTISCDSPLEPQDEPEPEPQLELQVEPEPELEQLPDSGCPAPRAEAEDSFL
SGK2, sequence (Q9HBY8 whole entry): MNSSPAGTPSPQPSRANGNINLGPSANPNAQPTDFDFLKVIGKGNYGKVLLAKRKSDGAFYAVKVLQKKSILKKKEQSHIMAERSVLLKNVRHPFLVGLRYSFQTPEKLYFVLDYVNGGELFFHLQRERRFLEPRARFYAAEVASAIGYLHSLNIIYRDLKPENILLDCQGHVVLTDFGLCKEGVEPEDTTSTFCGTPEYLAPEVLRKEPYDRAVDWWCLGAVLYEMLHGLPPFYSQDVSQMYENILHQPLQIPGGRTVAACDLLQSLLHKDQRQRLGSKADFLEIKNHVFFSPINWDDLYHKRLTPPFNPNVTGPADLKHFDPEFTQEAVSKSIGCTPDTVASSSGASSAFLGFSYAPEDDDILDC
ABL1, sequence (P00519 whole entry): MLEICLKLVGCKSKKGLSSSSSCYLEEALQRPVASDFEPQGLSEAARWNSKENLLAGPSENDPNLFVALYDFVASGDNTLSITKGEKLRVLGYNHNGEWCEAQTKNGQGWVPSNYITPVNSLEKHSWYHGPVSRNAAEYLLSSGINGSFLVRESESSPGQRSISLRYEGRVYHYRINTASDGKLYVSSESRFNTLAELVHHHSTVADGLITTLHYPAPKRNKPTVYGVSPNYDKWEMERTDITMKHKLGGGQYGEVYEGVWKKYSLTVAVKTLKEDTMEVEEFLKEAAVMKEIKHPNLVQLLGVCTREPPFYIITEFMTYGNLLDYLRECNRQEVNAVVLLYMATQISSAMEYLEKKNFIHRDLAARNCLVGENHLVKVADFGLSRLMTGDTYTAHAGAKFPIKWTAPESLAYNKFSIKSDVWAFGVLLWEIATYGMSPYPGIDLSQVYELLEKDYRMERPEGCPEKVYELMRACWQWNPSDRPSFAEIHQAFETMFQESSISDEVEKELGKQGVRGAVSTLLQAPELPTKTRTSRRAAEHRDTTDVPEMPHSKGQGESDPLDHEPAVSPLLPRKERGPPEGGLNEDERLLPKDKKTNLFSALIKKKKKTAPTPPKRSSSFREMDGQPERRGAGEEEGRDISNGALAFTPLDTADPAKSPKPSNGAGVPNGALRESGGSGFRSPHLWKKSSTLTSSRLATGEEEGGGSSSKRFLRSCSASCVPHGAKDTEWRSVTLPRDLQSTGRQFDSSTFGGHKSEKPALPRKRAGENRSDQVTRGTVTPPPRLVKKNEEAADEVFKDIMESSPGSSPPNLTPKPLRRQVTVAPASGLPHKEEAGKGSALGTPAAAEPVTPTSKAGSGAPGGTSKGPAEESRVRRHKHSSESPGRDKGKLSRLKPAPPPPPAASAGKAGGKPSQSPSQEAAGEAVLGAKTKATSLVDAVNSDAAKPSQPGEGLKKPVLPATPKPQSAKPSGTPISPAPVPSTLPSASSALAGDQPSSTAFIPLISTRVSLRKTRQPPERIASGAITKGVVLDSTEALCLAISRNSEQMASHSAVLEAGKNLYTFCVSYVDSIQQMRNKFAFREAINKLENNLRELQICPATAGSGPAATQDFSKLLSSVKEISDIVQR

Regarding `COc1cc(-c2cncc(-c3ccc(N4CCN(C)CC4)cc3)c2C)cc(F)c1C(N)=O` [Compound 26a, 2-Fluoro-6-methoxy-4-(4-methyl-5-(4-(4-methylpiperazin-1-yl)phenyl)pyridin-3-yl)benzamide], the remaining activity at 1 µM came out at 94.3% in [1]; 75.2% in test [5]; 91.7% in test [7]; 92.5% in test [9]; 92.2% in test [10]. For the same compound, the “% enzyme activity” value was 76.01% in test [2], 104.94% in [3], 93.57% in test [4] and 100.43% in test [6]. Besides, the % enzyme activity at 1 μM in [8] is 31.3% and 30.9%.
With `COc1cc(-c2cncc(-c3ccc(N4C[C@@H](C)N(C)[C@@H](C)C4)cc3)c2C)cc(F)c1C(N)=O` [Compound 26c, 2-Fluoro-6-methoxy-4-(4-methyl-5-(4-((3R,5S)-3,4,5-trimethylpiperazin-1-yl)phenyl)pyridin-3-yl)benzamide], the remaining activity at 1 µM in test [1] amounted to 95.9%; in test [5], 83.9%; in test [7], 90.3%; in test [9] it was 89.8%; in [10], 101%. For the same compound, the “% enzyme activity” value in test [2] worked out at 89.56%; in [3] it was 97.75%; in [4] it was 100.00%; in [6] it was 100.91%. Besides, in test [8], the % enzyme activity at 1 μM stood at 46.6%.
